Results taken from US9751885B2, “Cyclopropanamine compound and use thereof” (Takeda Pharmaceutical Company Limited, priority 2012, dated 2017).
Structures can show the parent of a compound that is named as a salt. Where two headings read alike, the source gives them in different places.

Key:
human LSD1(172-833) = human LSD1(172-833) (Homo sapiens (Human), UniProt O60341); assay: Measurement of LSD1 inhibitory activity (time-resolved fluorescence, biotin-histone H3 mono methylated K4 peptide); assay type: biochemical
Method in brief: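 Remaining signal detected by TR-FRET after 60 min with europium anti-histone H3 antibody and streptavidin-XL665 in potassium fluoride/0.1% BSA.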

MAO-A enzyme = MAO-A enzyme (Homo sapiens (Human), UniProt P21397); assay: Measurement of MAO-A inhibitory activity (MAO-Glo Assay); assay type: biochemical
[1] = test system: Gad1 H3K4me2 level in rat primary culture neurons; assay: Gad1 H3K4 methylation induction activity in rat primary culture neurons (ChIP-qPCR); assay type: cell-based; settings: Neuron, 72 h, 3 days, rat primary culture neurons, control without compound = 100%, read-out: Gad1 H3K4me2 induction activity (%)
[2] = test system: white blood cell number, red blood cell number, platelet number; assay: Evaluation of blood cell number in mouse; assay type: in vivo; settings: oral, Day 2 after administration
Method in brief: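 Male ICR mice dosed orally at 1, 10, 50 or 100 mg/kg (suspension in 0.5% methylcellulose/0.02% citric acid/water); whole blood collected on Day 2. White cell, red cell and platelet counts per unit volume by automated haematology analyser, expressed as % of mean of untreated control group.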

[3] = Evaluation of hippocampal distribution in mouse; assay type: in vivo; settings: male ICR mice, 10 mg/kg oral, 1 hr after administration
Method in brief: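 Male ICR mice dosed orally at 10 mg/kg as suspension in 0.5% methylcellulose/0.02% citric acid/water. Plasma and hippocampus sampled together at 0.5, 1 or 1.5 h; LC/MS/MS concentrations gave hippocampus/plasma ratio.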

MAO-B enzyme = MAO-B enzyme (Homo sapiens (Human), UniProt P27338); assay: Measurement of MAO-B inhibitory activity (MAO-Glo Assay); settings: read-out: MAO-B IC50 value;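 further: luminescence read-out, compound preincubated 10 min with enzyme then reacted 60 min at room temperature, inhibition relative to enzyme reaction without compound, blank lacking enzyme and compound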
Chain of MAO-B enzyme (P27338 whole entry): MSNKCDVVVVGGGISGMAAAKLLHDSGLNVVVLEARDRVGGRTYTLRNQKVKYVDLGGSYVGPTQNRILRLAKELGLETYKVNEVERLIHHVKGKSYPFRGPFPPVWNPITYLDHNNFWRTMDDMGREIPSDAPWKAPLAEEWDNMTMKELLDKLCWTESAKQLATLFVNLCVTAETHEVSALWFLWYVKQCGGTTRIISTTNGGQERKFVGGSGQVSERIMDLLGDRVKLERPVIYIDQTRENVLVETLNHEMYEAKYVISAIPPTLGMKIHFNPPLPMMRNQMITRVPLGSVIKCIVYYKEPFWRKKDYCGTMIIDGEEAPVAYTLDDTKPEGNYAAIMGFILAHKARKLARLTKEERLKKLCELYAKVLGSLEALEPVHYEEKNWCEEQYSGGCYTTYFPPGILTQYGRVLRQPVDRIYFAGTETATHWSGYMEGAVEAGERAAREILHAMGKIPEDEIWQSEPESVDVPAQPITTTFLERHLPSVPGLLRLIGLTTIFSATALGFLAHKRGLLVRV
Procedure: The MAO-B inhibitory activity evaluation described below followed the protocol of MAO-Glo (registered trademark) Assay of Promega KK.
A test compound dissolved in 4% DMSO was added by 12.5 μL to 25 μL reaction solution (100 mM HEPES (pH 7.5), 5% glycerol, 10% DMSO) containing 400 ng of MAO-B enzyme (Sigma-Aldrich Co. LLC.), and the mixture was reacted at room temperature for 10 min. […] After reaction at room temperature for 60 min, Luciferine detection reagent (Promega KK) (50 μL) was added to terminate the reaction. After reaction at room temperature for 20 min with stirring, the luminescence was measured by Envision (PerkinElmer). The MAO-B inhibitory rate (%) of the test compound was calculated by the following formula. inhibitory rate(%)=(1−(test compound count−blank)÷(control−blank))×100
The count of the MAO-B enzyme reaction mixture under compound non-addition conditions is indicated as control, and the count under compound non-addition and MAO-B enzyme non-addition conditions is indicated as blank.

Chain of MAO-A enzyme (P21397 whole entry): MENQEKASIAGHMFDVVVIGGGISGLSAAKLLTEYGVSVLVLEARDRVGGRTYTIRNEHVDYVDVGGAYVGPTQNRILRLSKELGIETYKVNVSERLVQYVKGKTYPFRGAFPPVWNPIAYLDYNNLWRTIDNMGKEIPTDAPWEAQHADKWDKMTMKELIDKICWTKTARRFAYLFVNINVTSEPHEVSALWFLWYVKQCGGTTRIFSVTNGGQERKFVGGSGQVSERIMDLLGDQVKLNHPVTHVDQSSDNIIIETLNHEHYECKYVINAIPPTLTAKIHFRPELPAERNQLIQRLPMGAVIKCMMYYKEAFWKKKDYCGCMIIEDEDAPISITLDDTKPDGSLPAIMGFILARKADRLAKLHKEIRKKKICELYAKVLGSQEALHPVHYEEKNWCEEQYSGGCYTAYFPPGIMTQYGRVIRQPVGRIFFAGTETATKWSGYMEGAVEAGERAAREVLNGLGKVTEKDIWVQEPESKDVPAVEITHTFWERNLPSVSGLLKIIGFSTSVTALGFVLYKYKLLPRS

Structure (SMILES): Cc1cc(NC(=O)c2cccc([C@@H]3C[C@H]3NCC3CC3)c2)on1 (relative stereo) [Example 106, 3-(trans-2-((cyclopropylmethyl)amino)cyclopropyl)-N-(3-methyl-1,2-oxazol-5-yl)benzamide hydrochloride]
- IC50 (human LSD1(172-833)): < 0.1 µM
- IC50 (MAO-A enzyme): > 10 µM
- activity at 1 µM ([1]; compound 1 μM): 139%
- activity at 10 µM ([1]; compound 10 μM): 132%
- platelet number, percentage of compound administration group compared to control group, mean ([2]; 10 mg/kg): 94.6%
- red blood cell number, percentage of compound administration group compared to control group, mean ([2]; 10 mg/kg): 99.4%
- white blood cell number, percentage of compound administration group compared to control group, mean ([2]; 10 mg/kg): 114.8%
- platelet number, percentage of compound administration group compared to control group, mean ([2]; 100 mg/kg): 97.2%
- red blood cell number, percentage of compound administration group compared to control group, mean ([2]; 100 mg/kg): 101.9%
- white blood cell number, percentage of compound administration group compared to control group, mean ([2]; 100 mg/kg): 89.0%
- concentration at 1 h ([3]; hippocampus, read-out: hippocampus concentration (mean)): 107 ng/g
- concentration at 1 h ([3]; plasma, read-out: plasma concentration (mean)): 33 ng/mL
- IC50 (MAO-B enzyme): > 10 µM
